{
  "source": "patent US11872266B2",
  "about": "“Rapid-acting insulin compositions” (Eli Lilly and Company, priority 2014, dated 2024)",
  "origin": "cited, not measured here",
  "settings": "on a molar basis",
  "data": [
    {"substance": "28^B-L-Lysine-29^B-L-proline human insulin [Insulin lispro]", "values": [
      {"measurement": "Potency relative to human insulin", "result": "equipotent to human insulin"}
    ]}
  ]
}
